According to the supplement of paper PMC13380429:

Key:
Settings in all cases: 72 h
Caco-2 [1] = assay: cell viability relative to DMSO; higher = less toxic
Calu-3 [2] = assay: as above
HepG2 [3] = assay: as above
U2OS [4] = assay: as above
Vero E6 [5] = assay: as above
Caco-2 [6] = assay: relative viability EC50 (midpoint between 100% and the lowest measured viability); higher = less toxic
Calu-3 [7] = assay: as above
U2OS [8] = assay: as above
Vero E6 [9] = assay: as above
Caco-2 [10] = assay: drug sensitivity score (DSS) for viability; higher = more toxic; extreme values may be limits of the assay
Calu-3 [11] = assay: as above
HepG2 [12] = assay: as above
U2OS [13] = assay: as above
Vero E6 [14] = assay: as above
HepG2 [15] = assay: relative viability EC50 (midpoint between 100% and the lowest measured viability); higher = less toxic

SMILES	cell viability (Caco-2 [1]; 1 nM)	cell viability (Caco-2 [1]; 10 nM)	cell viability (Caco-2 [1]; 100 nM)	cell viability (Caco-2 [1]; 1000 nM)	cell viability (Caco-2 [1]; 10000 nM)	cell viability (Calu-3 [2]; 1 nM)	cell viability (Calu-3 [2]; 10 nM)	cell viability (Calu-3 [2]; 100 nM)	cell viability (Calu-3 [2]; 1000 nM)	cell viability (Calu-3 [2]; 10000 nM)	cell viability (HepG2 [3]; 1 nM)	cell viability (HepG2 [3]; 10 nM)	cell viability (HepG2 [3]; 100 nM)	cell viability (HepG2 [3]; 1000 nM)	cell viability (HepG2 [3]; 10000 nM)	cell viability (U2OS [4]; 1 nM)	cell viability (U2OS [4]; 10 nM)	cell viability (U2OS [4]; 100 nM)	cell viability (U2OS [4]; 1000 nM)	cell viability (U2OS [4]; 10000 nM)	cell viability (Vero E6 [5]; 1 nM)	cell viability (Vero E6 [5]; 10 nM)	cell viability (Vero E6 [5]; 100 nM)	cell viability (Vero E6 [5]; 1000 nM)	cell viability (Vero E6 [5]; 10000 nM)	relative viability EC50 (Caco-2 [6])	relative viability EC50 (Calu-3 [7])	relative viability EC50 (U2OS [8])	relative viability EC50 (Vero E6 [9])	drug sensitivity score (Caco-2 [10])	drug sensitivity score (Calu-3 [11])	drug sensitivity score (HepG2 [12])	drug sensitivity score (U2OS [13])	drug sensitivity score (Vero E6 [14])	relative viability EC50 (HepG2 [15])
CCn1cc(-c2cccc(C(F)(F)F)c2)c2sc(C(=N)NC3CCS(=O)(=O)CC3)cc2c1=O [I-BRD9]	111%	102%	97%	97.8%	93.5%	112%	99.5%	106%	95.4%	79.5%	94.4%	99.2%	98.6%	97.5%	63.4%	103%	102%	99.1%	99.5%	92%	95.1%	95.8%	98.7%	98.1%	92.3%	> 10 µM	> 10 µM	> 10 µM	> 10 µM	0	1.2	2.1	0	0	
Cc1cn([C@H]2C[C@H](N=[N+]=[N-])[C@@H](CO)O2)c(=O)[nH]c1=O [zidovudine]	94.9%	92.6%	105%	98%	98%	107%	89.6%	101%	98.9%	103%	101%	109%	99%	94.6%	104%	103%	104%	95.2%	103%	94.3%						> 10 µM	> 10 µM	> 10 µM		0	0	0	0		> 10 µM
c1cn2cc(-c3ccc4cn[nH]c4c3)nc(Nc3ccc(N4CCOCC4)cc3)c2n1 [GS-9973]	108%	108%	98.3%	99.7%	91.4%	95.2%	103%	90%	94.3%	92.7%	105%	103%	100%	93.8%	92.5%	94.1%	101%	98.2%	98%	92.2%						> 10 µM	> 10 µM	> 10 µM		0	0	0	0		> 10 µM
COc1cc([S+](C)[O-])ccc1-c1nc2cccnc2[nH]1 (stereo not drawn) [sulmazole]	115%	98.5%	98.8%	99.5%	112%	108%	90.3%	90.7%	93.8%	104%	106%	103%	95.5%	102%	100%						98%	102%	98.5%	97.8%	101%	> 10 µM	> 10 µM		> 10 µM	0	0	0		0	> 10 µM
